Assay [1] has as its system SDS-insoluble EGFP-HD72Q protein aggregates. As to the kind of experiment: Filter retardation assay for SDS-insoluble EGFP-HD72Q protein aggregates in COS-1 cells. To be noted: filtration assay. Format: cell-based, monkey. Here is the method:
(§1) (A) Expression of EGFP-HD72Q, Hsp40, Hsp70, and Hsp90 in COS-1 cells. […] Equal amounts (10 μg) of protein were loaded. […] Aggregates were detected using the filter retardation assay. Filters were probed with the HD1 antibody and signal intensities quantified using a Fuji-imager (LAS 2000). […] Values shown are the mean of three independent experiments (±S.E).
(§2) A further linker was introduced in order to generate the appropriate reading frame, resulting in pTL1-HA3. Hsp70-pTLHA3 was generated by PCR amplification of the human Hsp70A gene and cloning into pTL1-HA3. Hdj-1-pTL10Flag was generated by ligating the human HDJ-1 gene, derived from pQE9-His-Hsp40 (33), into pTL10SFlag (a kind gift of D. Devys and J.-L. Mandel). pEGFP-HD72Q was generated by PCR amplification of the exon 1 of human HD from patient DNA and cloning into pEGFP-C1 (Clontech). All constructs were verified by sequencing.
Control cells were treated with DMSO. As alternative transfection method, the Lipofectamine Plus Reagent (GibcoBRL Life Technologies) was used according to the manufacturer's instruction.
SDS-PAGE and Western blot analysis was performed according to standard procedures. For the filter retardation assay (27,30) protein samples (1-20 μg) were heated at 98° C. for 3 min in 2% SDS and 50 mM DTT and filtered through a 0.2 μm cellulose acetate membrane (Schleicher & Schuell) using a BRL dot-blot filtration unit. Captured aggregates were detected by incubation with HD1 IgG (diluted 1:5000) followed by incubation with alkaline phosphatase conjugated anti-rabbit IgG and the fluorescent substrate AttoPhos. Quantitation of the captured aggregates was performed using a Fuji-imager (LAS 2000) and AIDA 1.0 image analysis software.
Using this assay SDS-resistant huntingtin protein aggregates can be immunologically detected and quantified.

The subject of the next assay is EGFP-HD72Q. Description: Immunoblot of EGFP-HD72Q expression in GA treated COS-1 cells. Format: cell-based. The following applies: GA 18-360 nM, 40 hours. Here is the method: as §1, §2
Control cells were treated with DMSO. […]
SDS-PAGE and Western blot analysis was performed according to standard procedures. […] Captured aggregates were detected by incubation with HD1 IgG (diluted 1:5000) followed by incubation with alkaline phosphatase conjugated anti-rabbit IgG and the fluorescent substrate AttoPhos. Quantitation of the captured aggregates was performed using a Fuji-imager (LAS 2000) and AIDA 1.0 image analysis software.
Background: In western blotting, separated proteins are transferred to a membrane and probed.

Another assay has as its system Hsp70. Description: Immunoblot of Hsp70 expression in GA treated COS-1 cells expressing EGFP-HD72Q. Format: cell-based. To be noted: GA 360 nM, 40 hours. Here is the method: (§3) Equal amounts (10 μg) of protein were loaded. […] Aggregates were detected using the filter retardation assay.
(§4) Control cells were treated with DMSO.
(§5) Protein concentration was determined by the BioRad assay.

A further assay relates to Hsp40. As to the kind of experiment: Immunoblot of Hsp40 expression in GA treated COS-1 cells expressing EGFP-HD72Q. Type of assay: cell-based. The following applies: GA 360 nM, 40 hours. Here is the method:
as §3, §4, §5

Take `COC1=C2C[C@@H](C)C[C@H](OC)[C@H](O)[C@@H](C)/C=C(\C)[C@H](OC(N)=O)[C@@H](OC)/C=C\C=C(/C)C(=O)NC(=CC1=O)C2=O` [GA, Geldanamycin]: the “reduction of the amount of insoluble protein aggregates” value in assay [1] (GA 18 nM) is recorded as “approximately 30%”; in assay [1] (GA 90 nM), about 60%; in assay [1] (GA 180 nM) it was about 70%; in assay [1] (GA 360 nM) it was about 80%. For the same compound, the “effect on EGFP-HD72Q expression” value in the assay with EGFP-HD72Q was “no effect”. Further, the “up-regulation of Hsp70 compared to the untreated controls” value with Hsp70 is on record as 3-4 fold. Moreover, in the assay with Hsp40, the “up-regulation of Hsp40 compared to the untreated controls” value was 3-4 fold.

(Values after US20040235813A1, “Compounds that inhibit hsp90 and stimulate hsp70 and hsp40, useful in the prevention or treatment of diseases associated with protein aggregation and amyloid formation” (priority 2001, published 2004).)
